Reference: patent US5045566A, “Novel imidate insecticides” (ICI Americas Inc., priority 1989, dated 1991)

Columns and labels:
Type in all cases: in vivo
[1] = tested on: Housefly [Musca domestica]; assay: Housefly contact mortality in dishes (HF), 48 hours; details: μg of test compound per 25 female flies
Outline: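 Dose range started at 100 μg per 25 female flies and went downward. Insects (1-2 days old) contacted a dried acetone/peanut-oil deposit in dishes; LC50 values come from dosage-mortality curves at 48 h.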

[2] = tested on: Black Bean Aphid [Aphis fabae (Scop.)]; assay: Black bean aphid spray test on nasturtium (BBA), 48 hours; details: percent of test compound in sprayed solution
Outline: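 LC50, given as percent test compound in the sprayed liquid, was calculated from dosage-mortality curves using concentrations from 0.05% downward. Sprays in 50:50 acetone-water went to runoff on ~5 cm nasturtiums carrying 25-50 aphids of mixed ages, one day after infestation. Deaths were counted 48 h later under greenhouse conditions.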

[3] = tested on: Tobacco Budworm [Heliothis virescens (Fabricius)] eggs; assay: Tobacco budworm eggs (TBW-E); details: percent in solution; 2-day old eggs
Outline: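 LC50 values (percent test compound in the dip solution) were calculated from dosage-mortality curves. Egg patches, 2 days old, were dipped in acetone solutions at concentrations from 0.1% downward and held at 78° F on rearing medium until control larvae hatched and fed.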

[4] = tested on: Cabbage Looper [Trichoplusia ni (Hubner)]; assay: Cabbage looper leaf dip (CL), 3-5 days; details: percent in solution, second-instar larvae
Outline: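 Leaf dip, squash cotyledons, 50-50 acetone-water, top dose 0.1% and lower. 5 second-instar larvae/dish, moist filter paper, high-humidity chamber. Mortality at 3-5 d; LC50 (% in solution) from dosage-mortality curves.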

[5] = tested on: Aster Leafhopper [Macrosteles fascifrens (Stal)]; assay: Aster leafhopper on dipped oat seedlings (LH), 48 hours; details: percent in solution, adults/nymphs
Outline: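 Three ~10 cm oat seedlings per cup were dipped 2-3 seconds in 50-50 acetone-water compound solutions, dried, and caged with ten adult/nymph leafhoppers. Mortality was counted after 48 hours at concentrations from 0.05% downward. LC50, as percent compound in solution, came from dosage-mortality curves.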

[6] = tested on: Maize weevil [Sitophilus zeamais (Motschulsky)]; assay: Maize weevil on dipped corn seeds (MW), 48 hours; details: percent in solution, adult weevils
Outline: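 LC50, given as percent of compound in dipping solution, comes from dosage-mortality curves over concentrations descending from 0.01%. Four corn seeds soaked 2-3 s in 50:50 acetone:water solution were dried and held with 10 adult weevils, about 25° C, mortality read after 48 h.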

Structure (SMILES) | LC50 HF [1] | LC50 BBA [2] | LC50 TBW E (eggs) [3] | LC50 CL [4] | LC50 LH [5] | LC50 MW [6]
c1ccc(Oc2cccc(COC(=Nc3ccc4c(c3)OCO4)C3CC3)c2)cc1 [Compound 177] | 13 µg | 0.01% | > 0.1% | 0.002% | > 0.05% | 0.01%
CCC(=Nc1ccc2c(c1)OCO2)OCc1cccc(Oc2ccccc2)c1 [Compound 178, N-(3,4-Methylenedioxyphenyl)-O-(3-phenoxybenzyl)propionimidate] | 6 µg | 0.05% | > 0.1% | 0.004% | > 0.05% | > 0.01%
CC(C)C(=Nc1ccc2c(c1)OCCO2)OCc1cccc(Oc2ccccc2)c1 [Compound 179] | 13 µg | 0.003% | > 0.1% | 0.004% | 0.005% | > 0.01%
CC(C)C(=Nc1ccc(-c2ccccc2)cc1)OCc1cccc(Oc2ccccc2)c1 [Compound 186] | > 100 µg | > 0.05% | > 0.1% | 0.008% | > 0.05% | > 0.01%
CC(C)C(=Nc1ccc(F)c(Cl)c1)OCc1cccc(Oc2ccc(F)c(F)c2)c1 [Compound 217] | 8 µg | 0.001% | 0.015% | 0.00006% | > 0.05% | 0.0084%
CC(C)C(=Nc1ccc2c(c1)OCO2)OCc1cccc(Oc2ccc(Cl)cc2)c1 [Compound 240] | 14 µg | 0.001% | 0.04% | 0.0003% | > 0.05% | > 0.01%
CC(C)C(=Nc1cccc(I)c1)OCc1cccc(Oc2ccc(F)cc2)c1 [Compound 255] | 16 µg | 0.003% | 0.075% | 0.00017% | 0.0005% | > 0.01%
CSc1ccc(Oc2cccc(COC(=Nc3ccc(F)c(Cl)c3)C(C)C)c2)cc1 [Compound 256] | > 100 µg | 0.03% | 0.1% | 0.007% | > 0.05% | > 0.01%
CC(C)C(=Nc1ccc(F)cc1)OCc1cccc(Oc2ccc(Br)cc2)c1 [Compound 259] | 15 µg | 0.006% | 0.05% | 0.0003% | > 0.05% | > 0.01%
CC(C)C(=Nc1cccc([N+](=O)[O-])c1)OCc1cccc(Oc2ccc(Cl)cc2)c1 [Compound 271] | 27 µg | > 0.05% | 0.1% | 0.0004% | > 0.05% | > 0.01%
CC(C)C(=Nc1ccc(F)c([N+](=O)[O-])c1)OCc1cccc(Oc2ccccc2)c1 [Compound 293] | 19 µg | > 0.05% | > 0.1% | 0.0045% | > 0.05% | > 0.01%
CC(C)(F)C(=Nc1ccc(F)c(Cl)c1)OCc1cccc(Oc2ccc(F)cc2F)c1 [Compound 315] | > 100 µg | > 0.05% | > 0.1% | 0.002% | > 0.05% | > 0.01%
CC(C)(F)C(=Nc1ccc(F)c(Cl)c1)OCc1cc(Oc2ccc(F)cc2)ccc1F [Compound 316] | 100 µg | > 0.05% | > 0.1% | 0.0015% | > 0.05% | > 0.01%
CC(C)C(=Nc1cccc(C(C)(C)C)c1)OCc1cccc(Oc2ccc(F)cc2)c1 [Compound 350] | > 100 µg | > 0.05% | > 0.1% | 0.0045% | > 0.05% | > 0.01%
CC(C)C(=Nc1ccc(Br)cc1F)OCc1cccc(Oc2ccc(F)cc2)c1 [Compound 351] | 26 µg | 0.001% | > 0.1% | 0.0007% | > 0.05% | > 0.01%
CSc1ccc(N=C(OCc2ccc(F)c(Oc3ccccc3)c2)C(C)C)cc1 [Compound 353] | < 100 µg | 0.001% | > 0.1% | > 0.1% | > 0.05% | > 0.01%
Cc1ccc(N=C(OCc2ccc(F)c(Oc3ccccc3)c2)C(C)C)cc1F [Compound 354] | < 100 µg | 0.001% | 0.018% | > 0.1% | < 0.05% | 0.0068%
Cc1ccc(N=C(OCc2ccc(F)c(Oc3ccc(F)cc3)c2)C(C)C)cc1F [Compound 355] | < 100 µg | 0.0006% | > 0.1% | > 0.1% | < 0.05% | > 0.01%
Cc1ccc(N=C(OCc2ccc(F)c(Oc3ccccc3)c2)C(C)C)cc1Cl [Compound 356] | < 100 µg | 0.001% | 0.025% | > 0.1% | < 0.05% | > 0.01%
Cc1ccc(N=C(OCc2ccc(F)c(Oc3ccc(F)cc3)c2)C(C)C)cc1Cl [Compound 357] | < 100 µg | 0.0003% | > 0.1% | > 0.1% | < 0.05% | 0.01%
Cc1cc(N=C(OCc2ccc(F)c(Oc3ccccc3)c2)C(C)C)ccc1Br [Compound 358] | < 100 µg | 0.0003% | > 0.1% | > 0.1% | < 0.05% | > 0.01%
Cc1cc(N=C(OCc2ccc(F)c(Oc3ccc(F)cc3)c2)C(C)C)ccc1Br [Compound 359] | < 100 µg | 0.0006% | 0.023% | > 0.1% | 0.05% | > 0.01%
CCc1ccc(N=C(OCc2ccc(F)c(Oc3ccccc3)c2)C(C)C)cc1 [Compound 360] | < 100 µg | 0.0006% | > 0.1% | 0.006% | < 0.05% | > 0.01%
